Assay results published in patent US11085056B2, “Transfection complexes and methods of using the same” (MOLECULAR TRANSFER, INC., priority 2015, dated 2021).

Columns and labels:
NL-1 iPS Cells = test: Transfection of NL-1 iPS cells with DOTMA/DOPE/peptide and eGFP plasmid, fluorescent plate reader; format: cell-based; conditions: DOTMA/DOPE 1:1 plus peptide with RRRRRRRRRRRR (SEQ ID NO: 109) at n terminus; EF1Alpha eGFP plasmid; 42 hours
Protocol: (§1) Cells were plated to so that on the day of transfection the cells were 60-70% confluent in 96 well tissue culture plates. A DOMTA/DOPE Lipid solution (1:1 molar ratio) at 2 mg/mL in water were mixed with an equal volume of surface ligand peptides that had the nucleic acid binding moiety RRRRRRRRRRRR (SEQ ID NO: 109) covalently linked to the n terminus of each peptide during peptide synthesis. Peptides were at 2 mg/mL in water. The DOTMA/DOPE and the surface ligand peptide solution the transfection reagent was diluted 1 to 1 (v/v) in water. DOMTA/DOPE/PEPTIDE solutions were added to 0.1 mL of a plasmid DNA solution (EF1Alpha eGFP plasmid) at 5 μg/mL in OptiMEM. Lipofectamine 2000 was obtained from Life Technologies.
(§2) All solutions were at room temperature. A volume of 0.2 mL of a 5 μg/mL solution of DNA was aliquoted into each well of a non-tissue cultured treated plate. 4.0 μL of transfection reagents were added to DNA solutions respectively. The transfection reagent and DNA solution was mixed by pipetting up and down twice. Transfection complexes were formed for 10 minutes. After 10 minutes, 0.01 or 0.02 mL of the transfection complex was added to cells. HuVEC, HeLa, human adult keratinocytes, human primary adult fibroblast, and rat cortical neurons all respectively received 0.01 mL of the tramsfectopm complex. Human skeletal muscle cells, mouse C2C12 cells, Jurkat, and THP-1 cells received 0.02 mL of the transfection complex. Cells were incubated for 42 hours at 37° C. at 5% CO2. Plates were read on a fluorescent plate reader. Cells were also examined visually under a microscope to assess the extent of transfection (in terms of the percent of cells transfected) with a fluorescent microscope. Other modes of analysis, for example quantification with B-galactosidase or luciferase reports plasmids can also be used. […] Surface ligand that caused increase expression of GFP over the lipid DOTMA with no surface ligand were considered to enhance transfection or had higher % cells transfected were considered to enhance transfection. Peptides that gave greater than 2 fold enhancement are noted in bold and could be further optimized by adding different transfection enhancers or could be used with different cationic lipids or polymers.

HeLa Cells [1] = test: Transfection of HeLa cells with DOTMA/DOPE/peptide and eGFP plasmid, fluorescent plate reader; format: cell-based; conditions: DOTMA/DOPE 1:1 plus peptide with RRRRRRRRRRRR (SEQ ID NO: 109) at n terminus; EF1Alpha eGFP plasmid; 0.01 mL complex; 42 hours
Protocol: as §1, §2

some examined cell types = test: Transfection expression and % cells transfected over the no peptide control; format: cell-based; conditions: on some examined cell types
Protocol: as §1, §2

Jurkat Cells = test: Transfection of Jurkat cells with DOTMA/DOPE/peptide and eGFP plasmid, fluorescent plate reader; format: cell-based; conditions: DOTMA/DOPE 1:1 plus peptide with RRRRRRRRRRRR (SEQ ID NO: 109) at n terminus; EF1Alpha eGFP plasmid; 0.02 mL complex; 42 hours
Protocol: as §1, §2

HeLa Cells [2] = test: Transfection of HeLa cells with DOTMA/SEQ ID NO: 72/peptide compared with Lipofectamine 2000; format: cell-based; conditions: fusogenic peptide 0.1 mg/mL
Protocol: as §1, §2
The fusogenic peptide was added to the DOMTA/peptide formulation to achieve a final concentration of 0.1 mg/mL to see if transfection reagents were further enhanced by the addition of a fusogenic peptide and could provide higher transfection efficiency into HeLa cells and expression than the commercially available Lipofectamine 2000.

C2C12 Cells = test: Transfection of C2C12 cells with DOTMA/DOPE/peptide and eGFP plasmid, fluorescent plate reader; format: cell-based, mouse; conditions: DOTMA/DOPE 1:1 plus peptide with RRRRRRRRRRRR (SEQ ID NO: 109) at n terminus; EF1Alpha eGFP plasmid; 0.02 mL complex; 42 hours
Protocol: as §1, §2

HuVec Cells = test: Transfection of HuVec cells with DOTMA/DOPE/peptide and eGFP plasmid, fluorescent plate reader; format: cell-based; conditions: DOTMA/DOPE 1:1 plus peptide with RRRRRRRRRRRR (SEQ ID NO: 109) at n terminus; EF1Alpha eGFP plasmid; 0.01 mL complex; 42 hours
Protocol: as §1, §2

Human Fibroblast Cells = test: Transfection of human fibroblast cells with DOTMA/DOPE/peptide and eGFP plasmid, fluorescent plate reader; format: cell-based; conditions: DOTMA/DOPE 1:1 plus peptide with RRRRRRRRRRRR (SEQ ID NO: 109) at n terminus; EF1Alpha eGFP plasmid; 0.01 mL complex; 42 hours
Protocol: as §1, §2

[3] = 0.1 μL of DOTMA/SEQ ID NO: 72/Peptide in well of a 96 well plate
[4] = 0.2 μL of DOTMA/SEQ ID NO: 72/Peptide in well of a 96 well plate
[5] = 0.3 μL of DOTMA/SEQ ID NO: 72/Peptide in well of a 96 well plate
[6] = 0.4 μL of DOTMA/SEQ ID NO: 72/Peptide in well of a 96 well plate

| Substance | RF (Relative Fluorescence) of Transfection of NL-1 iPS Cells (NL-1 iPS Cells) | RF (Relative Fluorescence) of Transfection of HeLa Cells (HeLa Cells [1]) | transfection expression and the % cells transfected over the no peptide control (some examined cell types) | RF (Relative Fluorescence) of Transfection of Jurkat Cells (Jurkat Cells) | RF (Relative Fluorescence), DOTMA/SEQ ID NO: 72/Peptide, HeLa Cells (HeLa Cells [2]; [3]) | RF (Relative Fluorescence), DOTMA/SEQ ID NO: 72/Peptide, HeLa Cells (HeLa Cells [2]; [4]) | RF (Relative Fluorescence), DOTMA/SEQ ID NO: 72/Peptide, HeLa Cells (HeLa Cells [2]; [5]) | RF (Relative Fluorescence), DOTMA/SEQ ID NO: 72/Peptide, HeLa Cells (HeLa Cells [2]; [6]) | RF (Relative Fluorescence) of Transfection of C2C12 Cells (C2C12 Cells) | RF (Relative Fluorescence) of Transfection of HuVec Cells (HuVec Cells) | RF (Relative Fluorescence) of Transfection of Human Fibroblast Cells (Human Fibroblast Cells) |
| --- | --- | --- | --- | --- | --- | --- | --- | --- | --- | --- | --- |
| 218 (SPPRRARVT; Peptidic transfection agent) [compound 218] | 17049 | 11179 | increased | 21451 | 12686 | 13103 | 10151 | 10081 | 3706 | 14827 | 11230 |
| 219 (RKRLQVQLSIRT; Peptidic transfection agent) [compound 219] | 5770 | 13721 | increased | 10762 | 12135 | 13841 | 13531 | 11712 | 1346 | 6237 | 7389 |
| 237 (KNSFMALYLSKG; Peptidic transfection agent) [compound 237] | 8632 | 21288 | increased | 1501 | 8986 | 9753 | 8015 | 8288 | 6491 | 2302 | 2184 |
| 268 (GGFLKYTVSYDI; Peptidic transfection agent) [compound 268] | 15697 | 25885 | increased | 3236 | 10162 | 9934 | 10792 | 9519 | 2568 | 5403 | 4568 |
| 323 (HQQDLGTAGSCLRKFSTMFLF; Peptidic transfection agent) [compound 323] | 21694 | 14067 | increased | 2900 | 15537 | 16620 | 10839 | 9244 | 7698 | 12815 | 4826 |
| 326 (RLVSYSGVLFFLK; Peptidic transfection agent) [compound 326] | 9239 | 18946 | increased | 3018 | 6887 | 9487 | 10330 | 9227 | 8553 | 4932 | 3070 |
| 328 (NWRHISYITRFG; Peptidic transfection agent) [compound 328] | 8611 | 32528 | increased | 4770 | 11037 | 12229 | 10801 | 10951 | 5507 | 3614 | 5641 |
| 336 (GEFYFDLRLKGDK; Peptidic transfection agent) [compound 336] | 14875 | 25262 | increased | 4813 | 14442 | 16702 | 13434 | 11334 | 9647 | 5366 | 10449 |
| 341 (LRAHAVDVNG; Peptidic transfection agent) [compound 341] | 20446 | 4108 | increased | 18042 | 6406 | 7469 | 8020 | 7546 | 2141 | 15906 | 2284 |
